Experimental data published in ChEMBL document CHEMBL1201862, “PubChem BioAssay data set” (2004).
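Step 1: Grow cells in 96-well plates. Step 2: Expose to compound for 48 hours at 5 concentrations. Step 3: Interpolate endpoints linearly; if unreached, use highest concentration. GI50 marks 50% less growth.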 Calls of active or inactive are those of the source. Rule as the data show it: active = GI50 up to about 1.1 µM and inactive = higher.

Assays:
Assay in all cases: growth of human tumour cells (NCI), 48 h
HT-29 = tested on: HT-29
T47D = tested on: T47D
NCI/ADR-RES = tested on: NCI/ADR-RES
M14 = tested on: M14
TK-10 = tested on: TK-10
UO-31 = tested on: UO-31
SNB-19 = tested on: SNB-19
SF-268 = tested on: SF-268
UACC-62 = tested on: UACC-62
LOX IMVI = tested on: LOX IMVI
HCT-116 = tested on: HCT-116
SR = tested on: SR
U-251 = tested on: U-251
MCF7 = tested on: MCF7
RXF 393 = tested on: RXF 393
NCI-H460 = tested on: NCI-H460
Hs-578T = tested on: Hs-578T
OVCAR-4 = tested on: OVCAR-4
DU-145 = tested on: DU-145
COLO 205 = tested on: COLO 205
BT-549 = tested on: BT-549
MDA-MB-231 = tested on: MDA-MB-231
HL-60 = tested on: HL-60
SK-OV-3 = tested on: SK-OV-3
SK-MEL-5 = tested on: SK-MEL-5
Malme-3M = tested on: Malme-3M
CCRF-CEM = tested on: CCRF-CEM
EKVX = tested on: EKVX
NCI-H23 = tested on: NCI-H23
786-0 = tested on: 786-0
MDA-MB-435 = tested on: MDA-MB-435
OVCAR-3 = tested on: OVCAR-3
OVCAR-5 = tested on: OVCAR-5
CAKI-1 = tested on: CAKI-1
IGROV-1 = tested on: IGROV-1
SK-MEL-28 = tested on: SK-MEL-28
ACHN = tested on: ACHN
NCI-H522 = tested on: NCI-H522
OVCAR-8 = tested on: OVCAR-8
MOLT-4 = tested on: MOLT-4
RPMI-8226 = tested on: RPMI-8226
HCT-15 = tested on: HCT-15
KM12 = tested on: KM12
MDA-N = tested on: MDA-N
UACC-257 = tested on: UACC-257
PC-3 = tested on: PC-3
SN12C = tested on: SN12C
A549 = tested on: A549
HOP-62 = tested on: HOP-62
SF-295 = tested on: SF-295
K562 = tested on: K562
A498 = tested on: A498
SNB-75 = tested on: SNB-75
NCI-H226 = tested on: NCI-H226
SW-620 = tested on: SW-620
SK-MEL-2 = tested on: SK-MEL-2
SF-539 = tested on: SF-539
HCC 2998 = tested on: HCC 2998
HOP-92 = tested on: HOP-92

Measured: GI50

COc1ccc(C(O)(c2ccccc2)c2nccc3ccccc23)cc1 (centres undefined)
active: Malme-3M 0.0966 µM
4.58 µM: HCT-15
inactive: HT-29 7.46 µM | T47D 36.8 µM | NCI/ADR-RES 7.05 µM | M14 2.76 µM | TK-10 27.8 µM | UO-31 21 µM | SNB-19 11.9 µM | SF-268 12.4 µM | UACC-62 3.74 µM | LOX IMVI 5.18 µM | HCT-116 4.76 µM | SR 7.74 µM | U-251 11.7 µM | MCF7 4.32 µM | RXF 393 3.19 µM | NCI-H460 5.82 µM | Hs-578T 4.71 µM | OVCAR-4 11 µM | DU-145 6.22 µM | COLO 205 4.47 µM | BT-549 8.41 µM | MDA-MB-231 7.31 µM | HL-60 2.32 µM | SK-OV-3 4.06 µM | SK-MEL-5 3.38 µM | CCRF-CEM 2.01 µM | EKVX 11.9 µM | NCI-H23 16.6 µM | 786-0 7.62 µM | MDA-MB-435 3.6 µM | OVCAR-3 2.48 µM | OVCAR-5 11.5 µM | CAKI-1 8 µM | IGROV-1 9.86 µM | SK-MEL-28 41.4 µM | ACHN 12.3 µM | NCI-H522 6.35 µM | OVCAR-8 18.1 µM | MOLT-4 2.29 µM | RPMI-8226 7.36 µM | KM12 5.71 µM | MDA-N 3.2 µM | UACC-257 7.74 µM | PC-3 3.02 µM | SN12C 22.1 µM | A549 7.19 µM | HOP-62 5.28 µM | SF-295 6.76 µM | K562 2.7 µM

CC(Cl)CN1c2ccccc2Sc2ccc(Cl)cc21 (centres undefined)
inactive: HT-29 > 10 µM | T47D > 10 µM | NCI/ADR-RES > 10 µM | M14 > 10 µM | TK-10 > 10 µM | UO-31 > 10 µM | SNB-19 > 10 µM | A498 > 10 µM | SF-268 > 10 µM | UACC-62 > 10 µM | LOX IMVI > 10 µM | HCT-116 > 10 µM | U-251 > 10 µM | MCF7 > 10 µM | RXF 393 > 10 µM | SNB-75 > 10 µM | NCI-H460 > 10 µM | Hs-578T > 10 µM | OVCAR-4 > 10 µM | DU-145 > 10 µM | NCI-H226 > 10 µM | COLO 205 > 10 µM | BT-549 > 10 µM | SW-620 > 10 µM | MDA-MB-231 > 10 µM | SK-MEL-2 > 10 µM | HL-60 > 10 µM | SK-OV-3 > 10 µM | SK-MEL-5 > 10 µM | Malme-3M > 10 µM | CCRF-CEM > 10 µM | EKVX > 10 µM | SF-539 > 10 µM | NCI-H23 > 10 µM | 786-0 > 10 µM | MDA-MB-435 > 10 µM | OVCAR-3 > 10 µM | OVCAR-5 > 10 µM | CAKI-1 > 10 µM | IGROV-1 > 10 µM | SK-MEL-28 > 10 µM | ACHN > 10 µM | NCI-H522 > 10 µM | HCC 2998 > 10 µM | HOP-92 > 10 µM | OVCAR-8 > 10 µM | MOLT-4 > 10 µM | RPMI-8226 > 10 µM | KM12 > 10 µM | MDA-N > 10 µM | UACC-257 > 10 µM | PC-3 > 10 µM | SN12C > 10 µM | A549 > 10 µM | HOP-62 > 10 µM | SF-295 > 10 µM | K562 > 10 µM
> 10 µM: HCT-15
